Results from article PMC10761119, “Phosphorylation-state dependent intraneuronal sorting of Aβ differentially impairs autophagy and the endo-lysosomal system” (Autophagy, 2023).

Legend:
[1] = test system: CTSD and CTSE in SH-SY5Y cells; assay: CTSD and CTSE activity assay with fluorogenic substrate; type: cell-based, human; details: Aβ 1 µM, 24 h, per µg total cellular protein, compared to control cells
Description: Cells were seeded in a 96-well plate (12000 cells/well, D1) and treated with different Aβ variants (primary cortical neurons, DIV14–500 nM, 4 h; SH-SY5Y cells, D3–1 μM, 24 h) in neurobasal, FCS-/PS- media. After the treatment, the supernatant was discarded, and cells were washed with PBS once. Cells were lysed by solubilizing the plasma membrane and intracellular membranes by adding 50 μL of 200 μg/mL digitonin in acetate buffer to the wells followed by incubation on ice for 15 min. Additionally, 50 μL of the Omnicathepsin D & E fluorogenic substrate (Enzo Life sciences, BML-P145) in sodium acetate buffer was added to the lysates in the wells for a final concentration of 30 μM of substrate and 10 mM DTT. Plate was incubated for 25 min at RT and the reaction was stopped by addition of 10 µl of ethanol. The relative amount of substrate cleavage in each well was computed using multiplate reader at λEx 380 nm and λEm 460 nm. Values were normalized and represented as fold-change with respect to control cells. Graphs in Figure 7G and S7F represent data from 3 independent experiments (n = 9).

SH-SY5Y cells = assay: Immunocytochemistry colocalization of Aβ with LC3 and LAMP2; type: cell-based, human; details: Aβ 1 µM, 24 h, n = 6, N = 3
Description: Cells were cultured on glass coverslips and treated similarly as mentioned above. After treatment, cells were subsequently washed and fixed with 4% paraformaldehyde in PBS for 15 min. […] Incubation with primary antibodies (respective dilutions in blocking buffer) was performed overnight at 4°C. Next day, coverslips were washed and incubated with respective secondary antibodies (respective dilutions in blocking buffer) for 1 h at RT. Removal of the secondary antibody solution was followed by washes with PBS (thrice) and distilled water (once) and coverslips were mounted on the slides using ImmuMount (ThermoFisher Scientific - Shandon EprediaTM, 9990412). […] Quantification of the number of autophagic compartments (Figure S6B) was done manually using a 10 μm^2 ROI grids, placed in the cytosolic region of the individual cells using the “rule of L” counting method. […] All images were processed and analyzed using Fiji ImageJ software. […] Distance from the plaque core (Figure 1B) was measured using the concentric circles plugin module. Fluorescence intensity of the green channel (Figure S3A-B), and the number of neurons positive for Aβ signals (Figure S3-D) were quantified using the processing module of Keyence software. […] Intensity of green and red channel for a particular ROI was calculated and ratios of the individual values were computed (Figure 6B and S7A). […]

In the case of “amyloid-β phosphorylated at serine residue 26 [p-Ser26Aβ]”, the “Activity of lysosomal CTSD and CTSE” value [1] is reported as “increased activity” and the “Colocalization with LAMP2” value (SH-SY5Y cells) is reported as “predominant colocalization”.
In the case of “amyloid-β phosphorylated at serine residue 8 [p-Ser8Aβ]”, the “Activity of lysosomal CTSD and CTSE” value [1] is reported as “no significant effect” and the “Accumulation in LC3-positive autophagosomal structures” value (SH-SY5Y cells) is reported as “preferential accumulation”.
